US9469650B2, “Melampomagnolide B derivatives” (BOARD OF TRUSTEES OF THE UNIVERSITY OF ARKANSAS, priority 2013, dated 2016)

Assays:
[1] = system: HCT-116; assay: panel of 60 human tumor cell lines, growth inhibition (Colon Cancer); conditions: for Percent Growth: HCT-116; for GI50: HCT-116, HCT-116
[2] = system: PC-3; assay: panel of 60 human tumor cell lines, growth inhibition (Prostate Cancer)
[3] = system: SK-MEL-28; assay: panel of 60 human tumor cell lines, growth inhibition (Melanoma)
[4] = system: SN12C; assay: panel of 60 human tumor cell lines, growth inhibition (Renal Cancer)
[5] = system: SK-MEL-5; assay: panel of 60 human tumor cell lines, growth inhibition (Melanoma); conditions: for Percent Growth: 8K-MEL-5
[6] = system: UO-31; assay: panel of 60 human tumor cell lines, growth inhibition (Renal Cancer)
[7] = system: T-47D; assay: panel of 60 human tumor cell lines, growth inhibition (Breast Cancer); conditions: for Percent Growth: T-47D
[8] = system: MCF7; assay: as above; conditions: for GI50: MCF7, MCF7; for Percent Growth: MCF7
[9] = system: SK-MEL-2; assay: panel of 60 human tumor cell lines, growth inhibition (Melanoma)

SMILES: C=C1C(=O)O[C@H]2[C@H]1CC/C(COC(=O)NCCc1ccccn1)=C\CC[C@@]1(C)O[C@@H]21 [JVM 61, ((1aR,7aS,10aS,10bS,E)-1a-methyl-8-methylene-9-oxo-1a,2,3,6,7,7a,8,9,10a,10b-decahydrooxireno[2′,3′:9,10]cyclodeca[1,2-b]furan-5-yl)methyl-(2-(pyridin-2-yl)ethyl)carbamate]
- Percent Growth ([1]; Log10 Concentration −4.0): −99%
- Percent Growth ([1]; Log10 Concentration −5.0): −33%
- Percent Growth ([1]; Log10 Concentration −6.0): 82%
- Percent Growth ([1]; Log10 Concentration −7.0): 102%
- Percent Growth ([1]; Log10 Concentration −8.0): 99%
- GI50 ([1]; Homo sapiens): 1.59 µM
- GI50 ([1]; Homo sapiens, 5-dose assay): 1.89 µM
- CC50 ([1]; Homo sapiens, HCT-116, read-out: LC50): 17.9 µM
- IC (TGI) ([1]; Homo sapiens, HCT-116, read-out: TGI): 5.12 µM
- GI50 ([2]; Homo sapiens, PC-3): 15.6 µM
- CC50 ([2]; Homo sapiens, PC-3, read-out: LC50): 76.8 µM
- IC (TGI) ([2]; Homo sapiens, PC-3, read-out: TGI): 35.7 µM
- Percent Growth ([2]; PC-3, Log10 Concentration −4.0): −67%
- Percent Growth ([2]; PC-3, Log10 Concentration −5.0): 83%
- Percent Growth ([2]; PC-3, Log10 Concentration −6.0): 97%
- Percent Growth ([2]; PC-3, Log10 Concentration −7.0): 95%
- Percent Growth ([2]; PC-3, Log10 Concentration −8.0): 98%
- GI50 ([3]; Homo sapiens, SK-MEL-28): 5.25 µM
- CC50 ([3]; Homo sapiens, SK-MEL-28, read-out: LC50): 45.5 µM
- IC (TGI) ([3]; Homo sapiens, SK-MEL-28, read-out: TGI): 18.1 µM
- Percent Growth ([3]; SK-MEL-28, Log10 Concentration −4.0): −93%
- Percent Growth ([3]; SK-MEL-28, Log10 Concentration −5.0): 32%
- Percent Growth ([3]; SK-MEL-28, Log10 Concentration −6.0): 96%
- Percent Growth ([3]; SK-MEL-28, Log10 Concentration −7.0): 96%
- Percent Growth ([3]; SK-MEL-28, Log10 Concentration −8.0): 104%
- GI50 ([4]; Homo sapiens): 6.61 µM
- CC50 ([4]; Homo sapiens, read-out: LC50): 66.3 µM
- IC (TGI) ([4]; Homo sapiens, read-out: TGI): 25.4 µM
- Percent Growth ([4]; Log10 Concentration −4.0): −70%
- Percent Growth ([4]; Log10 Concentration −5.0): 41%
- Percent Growth ([4]; Log10 Concentration −6.0): 91%
- Percent Growth ([4]; Log10 Concentration −7.0): 92%
- Percent Growth ([4]; Log10 Concentration −8.0): 95%
- Percent Growth ([5]; Log10 Concentration −4.0): −94%
- Percent Growth ([5]; Log10 Concentration −5.0): 50%
- Percent Growth ([5]; Log10 Concentration −6.0): 96%
- Percent Growth ([5]; Log10 Concentration −7.0): 95%
- Percent Growth ([5]; Log10 Concentration −8.0): 96%
- GI50 ([5]; Homo sapiens, SK-MEL-5): 9.78 µM
- CC50 ([5]; Homo sapiens, SK-MEL-5, read-out: LC50): 49.1 µM
- IC (TGI) ([5]; Homo sapiens, SK-MEL-5, read-out: TGI): 22.1 µM
- GI50 ([6]; Homo sapiens, UO-31): 6.38 µM
- CC50 ([6]; Homo sapiens, UO-31, read-out: LC50): 51.3 µM
- IC (TGI) ([6]; Homo sapiens, UO-31, read-out: TGI): 20.8 µM
- Percent Growth ([6]; UO-31, Log10 Concentration −4.0): −87%
- Percent Growth ([6]; UO-31, Log10 Concentration −5.0): 40%
- Percent Growth ([6]; UO-31, Log10 Concentration −6.0): 89%
- Percent Growth ([6]; UO-31, Log10 Concentration −7.0): 93%
- Percent Growth ([6]; UO-31, Log10 Concentration −8.0): 93%
- GI50 ([7]; Homo sapiens, T47D): 6.19 µM
- CC50 ([7]; Homo sapiens, T47D, read-out: LC50): > 100 µM
- IC (TGI) ([7]; Homo sapiens, T47D, read-out: TGI): 25 µM
- Percent Growth ([7]; Log10 Concentration −4.0): −43%
- Percent Growth ([7]; Log10 Concentration −5.0): 35%
- Percent Growth ([7]; Log10 Concentration −6.0): 106%
- Percent Growth ([7]; Log10 Concentration −7.0): 104%
- Percent Growth ([7]; Log10 Concentration −8.0): 98%
- GI50 ([8]; Homo sapiens): 2.65 µM
- GI50 ([8]; Homo sapiens, 5-dose assay): 2.85 µM
- CC50 ([8]; Homo sapiens, MCF7, read-out: LC50): 61.4 µM
- IC (TGI) ([8]; Homo sapiens, MCF7, read-out: TGI): 13 µM
- Percent Growth ([8]; Log10 Concentration −4.0): −66%
- Percent Growth ([8]; Log10 Concentration −5.0): 8%
- Percent Growth ([8]; Log10 Concentration −6.0): 85%
- Percent Growth ([8]; Log10 Concentration −8.0): 91%
- GI50 ([9]; Homo sapiens, SK-MEL-2): 15.1 µM
- CC50 ([9]; Homo sapiens, SK-MEL-2, read-out: LC50): 69 µM
- IC (TGI) ([9]; Homo sapiens, SK-MEL-2, read-out: TGI): 32.3 µM
- Percent Growth ([9]; SK-MEL-2, Log10 Concentration −4.0): −74%
- Percent Growth ([9]; SK-MEL-2, Log10 Concentration −5.0): 77%
- Percent Growth ([9]; SK-MEL-2, Log10 Concentration −6.0): 112%
- Percent Growth ([9]; SK-MEL-2, Log10 Concentration −7.0): 110%
- Percent Growth ([9]; SK-MEL-2, Log10 Concentration −8.0): 109%
